Measurements as given in US7504420B2, “Compounds which inhibit beta-secretase activity and methods of use” (CoMentis, Inc., priority 2005, dated 2009).

What was measured:
[1] = tested on: Aβ production in Chinese hamster ovary cells that over-express human APP695 with the London and Swedish mutations; test: Cellular Aβ IC50 determination (Aβ40 sandwich ELISA); settings: Cricetulus griseus, CHO, 24 h, read-out: Cell, Aβ40, CHO cells over-expressing human APP695 (London and Swedish mutations), 24 h
Experimental: The potency of compounds against memapsin 2 catalytic activity was determined in a cellular assay of Aβ production. […] Compounds are dissolved in DMSO to concentrations near 1 mM, and diluted into culture media to a final concentration near 4 μM (final 0.4% DMSO). Compounds were diluted serially and applied to cells in multi-well plates 48 h after seeding. Incubation was continued in 5% CO2 at 37 degrees C. for 24 h. Aliquots were removed and assayed for Aβ40 content using a sandwich ELISA (BioSource International). Amount of Aβ40 over the range of concentration of compounds, relative to control incubations, were fit to a 4-parameter IC50 model.

memapsin 2 = memapsin 2 (Homo sapiens, UniProt P56817); test: Inhibition of memapsin 2 catalytic activity (Ki); assay type: biochemical; settings: memapsin 2, pH 4, 37° C.; read-out: M2K
In short: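 Run at 37 °C and pH 4: compound and enzyme pre-incubated 20 min before FS-2 fluorogenic substrate started hydrolysis,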

memapsin 1 = target: T1, memapsin 1 (Homo sapiens, UniProt Q9Y5Z0); test: Inhibition of memapsin 1 catalytic activity (Ki); assay type: biochemical; settings: memapsin 1, pH 4.0, 37° C.; read-out: M1K
T1 sequence (Q9Y5Z0 63-518): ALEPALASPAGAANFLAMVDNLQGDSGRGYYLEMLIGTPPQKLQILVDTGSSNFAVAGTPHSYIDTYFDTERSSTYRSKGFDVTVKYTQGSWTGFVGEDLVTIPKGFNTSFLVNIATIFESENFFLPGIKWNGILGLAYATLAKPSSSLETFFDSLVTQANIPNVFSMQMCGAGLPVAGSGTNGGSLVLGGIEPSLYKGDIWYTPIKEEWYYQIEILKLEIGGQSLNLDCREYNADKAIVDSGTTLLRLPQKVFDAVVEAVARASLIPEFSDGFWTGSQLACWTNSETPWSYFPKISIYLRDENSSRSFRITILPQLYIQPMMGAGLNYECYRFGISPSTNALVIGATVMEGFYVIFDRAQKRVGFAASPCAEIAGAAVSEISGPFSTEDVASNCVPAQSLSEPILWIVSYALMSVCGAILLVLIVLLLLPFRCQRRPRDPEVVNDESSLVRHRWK
Experimental: A substrate peptide NH3-ELDLAVEFWHDR-CO2 (SEQ ID NO.:1) (used for inhibition assay of memapsin 2, memapsin 1, and cathepsin D) was dissolved at 2 mg/ml in DMSO and diluted 1:100 in 0.1 M sodium acetate, pH 4.0 just prior to assay. Inhibitor dissolved in DMSO was diluted into 0.1 M sodium acetate, pH 4.0 (1:100 dilution). A […] aliquot of the inhibitor solution in pH 4 buffer was combined with […] of 0.1 M sodium acetate containing 100-200 nM of memapsin 1, memapsin 2, or cathepsin D. Following a pre-incubation at 37° C., the proteolytic assay was initated by addition of […] of the substrate diluted into pH 4 buffer, and incubation continued at 37° C. Aliquots were removed at time intervals, and combined with an equal volume of MALDI-TOF matrix (α-hydroxycinnamic acid in acetone, 20 mg/ml) and immediately spotted in duplicate onto a stainless-steel MALDI sample plate. MALDI-TOF mass spectrometry was performed on a PE Biosystems Voyager DE instrument at the Molecular Biology Resource Center on campus. The instrument was operated at 25,000 accelerating volts in positive mode with a 150 ns delay. Ions with a mass-to-charge ratio (m/z) were detected in the range of 650-2000 atomic mass units. Data were analyzed by the Voyager Data Explorer module to obtain ion intensity data for mass species of substrates and corresponding products in a given mixture. Relative product formation was calculated as the ratio of signal intensity of the product to the sum of signal intensities of both product and the corresponding substrate. Relative product formed per unit time was obtained from non-linear regression analysis of the data representing the initial 15% formation of product using the model: 1−e^−kT, where k was the relative hydrolytic rate constant and T was time in seconds. Alternatively, relative hydrolytic rates were determined using a fluorogenic cleavage assay (Ermolieff, J. et al., Biochemistry, 39: 12450-12456 (2000)). Initial rates from either method were expressed relative to uninhibited controls and the inhibition constant Ki was determined by a non-linear fit to a tight-binding model of competitive inhibition (Bieth, J., Bayer-Symposium V: Proteinase Inhibitors, pp 463-469, Spinger-Varlag, Berlin (1994)). Results are shown in Table 1 above (M2K, CDK, and M1K columns represent, respectively, the K1 values obtained for memapsin 2, cathepsin D and memapsin 1).

cathepsin D = cathepsin D (Homo sapiens, UniProt P07339); test: Inhibition of cathepsin D catalytic activity (Ki); assay type: biochemical; settings: pH 4.0, 37° C., read-out: CDK
Sequence of cathepsin D (P07339 65-412, species assumed): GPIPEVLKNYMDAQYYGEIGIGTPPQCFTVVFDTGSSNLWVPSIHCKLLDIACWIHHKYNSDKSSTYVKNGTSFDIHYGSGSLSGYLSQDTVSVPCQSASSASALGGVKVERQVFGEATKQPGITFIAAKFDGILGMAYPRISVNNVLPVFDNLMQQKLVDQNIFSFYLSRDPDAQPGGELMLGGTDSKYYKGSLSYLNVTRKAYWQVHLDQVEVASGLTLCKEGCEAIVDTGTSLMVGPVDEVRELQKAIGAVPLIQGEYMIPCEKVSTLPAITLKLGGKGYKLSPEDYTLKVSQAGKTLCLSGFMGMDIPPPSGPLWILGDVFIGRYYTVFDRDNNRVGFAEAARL

Sequence of memapsin 2 (P56817 46-501): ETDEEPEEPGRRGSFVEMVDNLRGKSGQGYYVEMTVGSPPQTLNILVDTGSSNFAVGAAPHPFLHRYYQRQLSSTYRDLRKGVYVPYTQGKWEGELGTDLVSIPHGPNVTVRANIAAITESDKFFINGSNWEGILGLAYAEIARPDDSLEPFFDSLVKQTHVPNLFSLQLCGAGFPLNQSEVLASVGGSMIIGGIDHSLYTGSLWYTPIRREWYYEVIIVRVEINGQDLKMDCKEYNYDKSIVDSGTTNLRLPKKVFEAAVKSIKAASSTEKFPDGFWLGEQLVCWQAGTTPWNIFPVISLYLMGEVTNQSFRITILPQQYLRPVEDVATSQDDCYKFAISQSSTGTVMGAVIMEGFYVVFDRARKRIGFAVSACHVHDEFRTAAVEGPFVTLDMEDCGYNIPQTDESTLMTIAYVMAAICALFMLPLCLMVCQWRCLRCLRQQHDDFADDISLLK

| IC50 [1] [µM] | Ki (memapsin 2) [µM] | Ki (memapsin 1) [µM] | Ki (cathepsin D) [µM] | Compound |
| --- | --- | --- | --- | --- |
| 1 to 5 | > 0.501 | > 0.501 | > 0.501 | COc1cccc(CNCC(O)C(Cc2ccccc2)NC(=O)c2cc(C(=O)NCc3nc(C)oc3C)cc(N(C)S(C)(=O)=O)c2)c1 (centres unmarked) [N1-((2,5-dimethyloxazol-4-yl)methyl)-N3-(3-hydroxy-4-(3-methoxybenzylamino)-1-phenylbutan-2-yl)-5-(N-methylmethylsulfonamido)isophthalamide] |
| > 5 | 0.301 to 0.5 | > 0.501 | > 0.501 | CC(NC(=O)c1cc(C(=O)NC(Cc2ccccc2)C(O)CNN(C)c2ccccc2)cc(N(C)S(C)(=O)=O)c1)c1ccccc1 (centres unmarked) [N1-(3-hydroxy-4-(2-methyl-2-phenylhydrazinyl)-1-phenylbutan-2-yl)-5-(N-methylmethylsulfonamido)-N3-(1-phenylethyl)isophthalamide] |
| < 1 | < 0.3 | < 0.3 | < 0.3 | CC(NCC(O)C(Cc1ccccc1)NC(=O)c1cc(C(=O)NC(C)c2ccccc2)cc(N(C)S(C)(=O)=O)c1)c1ccc(F)cc1 (centres unmarked) [N1-(4-(1-(4-fluorophenyl)ethylamino)-3-hydroxy-1-phenylbutan-2-yl)-5-(N-methylmethylsulfonamido)-N3-(1-phenylethyl)isophthalamide] |
| < 1 | < 0.3 | < 0.3 | < 0.3 | CCC(NC(=O)c1cc(C(=O)NC(Cc2ccccc2)C(O)CNCc2cccc(OC)c2)cc(N(C)S(C)(=O)=O)c1)c1ccccc1 (centres unmarked) [N1-(3-hydroxy-4-(3-methoxybenzylamino)-1-phenylbutan-2-yl)-5-(N-methylmethylsulfonamido)-N3-(1-phenylpropyl)isophthalamide] |
| < 1 | – | < 0.3 | < 0.3 | COc1cccc(CNCC(O)C(Cc2ccccc2)NC(=O)c2cc(C(=O)NC(C)c3ccccc3)cc(N(C)S(C)(=O)=O)c2)c1 (centres unmarked) [N1-(3-hydroxy-4-(3-methoxybenzylamino)-1-phenylbutan-2-yl)-5-(N-methylmethylsulfonamido)-N3-(1-phenylethyl)isophthalamide] |
| > 5 | > 0.501 | > 0.501 | < 0.3 | COc1cccc(CNCC(O)C(Cc2ccccc2)NC(=O)c2cccc(C(=O)N(C)Cc3cc(C)no3)c2)c1 (centres unmarked) [N1-(3-hydroxy-4-(3-methoxybenzylamino)-1-phenylbutan-2-yl)-N3-methyl-N3-((3-methylisoxazol-5-yl)methyl)isophthalamide] |
| 1 to 5 | > 0.501 | > 0.501 | > 0.501 | COc1cccc(CNCC(O)C(Cc2ccccc2)NC(=O)c2cc(C(=O)NC(C)c3nc(C)oc3C)cc(N(C)S(C)(=O)=O)c2)c1 (centres unmarked) [N1-(1-(2,5-dimethyloxazol-4-yl)ethyl)-N3-(3-hydroxy-4-(3-methoxybenzylamino)-1-phenylbutan-2-yl)-5-(N-methylmethylsulfonamido)isophthalamide] |
| < 1 | 0.301 to 0.5 | 0.301 to 0.5 | > 0.501 | Cc1cccc(CNCC(O)C(Cc2ccccc2)NC(=O)c2cc(C(=O)NC(C)c3ccccc3)cc(N(C)S(C)(=O)=O)c2)n1 (centres unmarked) [N1-(3-hydroxy-4-((6-methylpyridin-2-yl)methylamino)-1-phenylbutan-2-yl)-5-(N-methylmethylsulfonamido)-N3-(1-phenylethyl)isophthalamide] |
| – | 0.301 to 0.5 | < 0.3 | > 0.501 | CC(NC(=O)c1cc(C(=O)NC(Cc2ccccc2)C(O)CNCc2cccc(COCc3ccccc3)c2)cc(N(C)S(C)(=O)=O)c1)c1ccccc1 (centres unmarked) [N1-(4-(3-(benzyloxymethyl)benzylamino)-3-hydroxy-1-phenylbutan-2-yl)-5-(N-methylmethylsulfonamido)-N3-(1-phenylethyl)isophthalamide] |
| 1 to 5 | – | > 0.501 | > 0.501 | Cc1nc(CNCC(O)C(Cc2ccccc2)NC(=O)c2cc(C(=O)NC(C)c3ccccc3)cc(N(C)S(C)(=O)=O)c2)c(C)o1 (centres unmarked) [N1-(4-((2,5-dimethyloxazol-4-yl)methylamino)-3-hydroxy-1-phenylbutan-2-yl)-5-(N-methylmethylsulfonamido)-N3-(1-phenylethyl)isophthalamide] |
| – | > 0.501 | > 0.501 | > 0.501 | Cc1csc(CN(C)CC(O)C(Cc2ccccc2)NC(=O)c2cc(C(=O)NC(C)c3ccccc3)cc(N(C)S(C)(=O)=O)c2)n1 (centres unmarked) [N1-(3-hydroxy-4-(methyl((4-methylthiazol-2-yl)methyl)amino)-1-phenylbutan-2-yl)-5-(N-methylmethylsulfonamido)-N3-(1-phenylethyl)isophthalamide] |
| – | < 0.3 | > 0.501 | < 0.3 | COc1cccc(CNCC(O)C(Cc2ccccc2)NC(=O)c2cccc(C(=O)N(Cc3nc(C)cs3)C3CC3)c2)c1 (centres unmarked) [N1-cyclopropyl-N3-(3-hydroxy-4-(3-methoxybenzylamino)-1-phenylbutan-2-yl)-N1-((4-methylthiazol-2-yl)methyl)isophthalamide] |
| – | > 0.501 | > 0.501 | – | COc1cccc(CNCC(O)C(CC(C)C)NC(=O)c2cc(C(=O)NC(C)c3ccccc3)cc(N(C)S(C)(=O)=O)c2)c1 (centres unmarked) [N1-(2-hydroxy-1-(3-methoxybenzylamino)-5-methylhexan-3-yl)-5-(N-methylmethylsulfonamido)-N3-(1-phenylethyl)isophthalamide] |
| – | < 0.3 | 0.301 to 0.5 | < 0.3 | COc1cncc(CNCC(O)C(Cc2ccccc2)NC(=O)c2cc(C(=O)NC(C)c3ccccc3)cc(N(C)S(C)(=O)=O)c2)c1 (centres unmarked) [N1-(3-hydroxy-4-((5-methoxypyridin-3-yl)methylamino)-1-phenylbutan-2-yl)-5-(N-methylmethylsulfonamido)-N3-(1-phenylethyl)isophthalamide] |
| > 5 | – | > 0.501 | – | COCc1cccc(CNCC(O)C(Cc2ccccc2)NC(=O)c2cc(C(=O)NC(C)c3ccccc3)cc(N(C)S(C)(=O)=O)c2)c1 (centres unmarked) [N1-(3-hydroxy-4-(3-(methoxymethyl)benzylamino)-1-phenylbutan-2-yl)-5-(N-methylmethylsulfonamido)-N3-(1-phenylethyl)isophthalamide] |
| – | < 0.3 | < 0.3 | < 0.3 | 4- or 6-fluoro-N3-(3-hydroxy-4-(3-methoxybenzylamino)-1-phenylbutan-2-yl)-N1-methyl-N1-((4-methylthiazol-2-yl)methyl)isophthalamide |
| < 1 | < 0.3 | > 0.501 | – | COc1cccc(CNCC(O)C(Cc2ccccc2)NC(=O)c2cc(C(=O)NC(C)c3cccc(OC)c3)cc(N(C)S(C)(=O)=O)c2)c1 (centres unmarked) [N1-(3-hydroxy-4-(3-methoxybenzylamino)-1-phenylbutan-2-yl)-N3-(1-(3-methoxyphenyl)ethyl)-5-(N-methylmethylsulfonamido)isophthalamide] |
| > 5 | > 0.501 | > 0.501 | – | CC(C)NC(=O)c1cccc(CNCC(O)C(Cc2ccccc2)NC(=O)c2cc(C(=O)NC(C)c3ccccc3)cc(N(C)S(C)(=O)=O)c2)c1 (centres unmarked) [N1-(3-hydroxy-4-(3-(isopropylcarbamoyl)benzylamino)-1-phenylbutan-2-yl)-5-(N-methylmethylsulfonamido)-N3-(1-phenylethyl)isophthalamide] |
